Laboratory results from patent US11262362B2, “2-hydroxyglutarate as a biomarker for chronic hypoxia” (MEMORIAL SLOAN KETTERING CANCER CENTER, priority 2011, dated 2022).

Tested on: SF188 cells
Test: Viability of glutamine-starved SF188 cells in hypoxia (trypan blue dye exclusion)
Assay type: cell-based, human
Details: 0.5% O2, glutamine-deficient medium supplemented with 7 mM dimethyl α-ketoglutarate, 48 h
Procedure: In FIG. 2(A), SF188 cells were cultured for 24 h in complete medium equilibrated with either 21% O2 (Normoxia) or 0.5% O2 (Hypoxia). Culture medium was then removed from cells and analyzed for glutamine levels which were compared to the glutamine levels in fresh medium. Data are the mean±SEM of 3 independent experiments. […] Cells were cultured in complete medium equilibrated with 0.5% O2 for 24 h, followed by an additional 48 h at 0.5% O2 in either complete medium (+Gln), glutamine-deficient medium (−Gln), or glutamine-deficient medium supplemented with 7 mM dimethyl α-ketoglutarate (−Gln+αKG). All medium was pre-conditioned in 0.5% O2. Cell viability was determined by trypan blue dye exclusion. Data are the mean and range from 2 independent experiments. FIG. 2(C) depicts a model of the pathways for cit+4 and cit+5 production from [U-^13C]glutamine (glutamine+5). […] Cells were cultured for 24 h as in (A), followed by 4 h of culture in glutamine-deficient medium supplemented with 4 mM [U-^13C]glutamine. ^13C enrichment in cellular citrate was quantitated with GC-MS. […]
SF188 and RCC4 cells were cultured in Dulbecco's Modified Eagle's Medium (DMEM; Invitrogen 11965), 10% fetal bovine serum (FBS; Gemini Biosystems), 100 units/ml Penicillin, 100 ug/ml Streptomycin, 25 mM glucose, and 6 mM L-glutamine. […] Viability was determined by trypan blue exclusion. […]

Q: How did the “cell viability upon glutamine withdrawal” value turn out when COC(=O)CCC(=O)C(=O)OC [dimethyl α-ketoglutarate] was run?
A: The value was “rescued the defect in cell viability”.
